According to paper PMC6171417, “Carbonic anhydrase inhibition with a series of novel benzenesulfonamide-triazole conjugates” (Journal of Enzyme Inhibition and Medicinal Chemistry, 2018):

Experiments:
Experiment in all cases: cells
Design in all cases: species or system NCI human tumour cell line panel; NCI one-dose anti-proliferative screen, human tumour cell line panel, growth inhibition percent (GI%)
T-47D = details: Homo sapiens, T47D; growth inhibition (GI%), single dose
Protocol: (§1) Ten of the newly synthesised 1,2,3-triazolo benzenesulfonamide derivatives were selected by NCI (Bethesda, MD) for evaluating their anti-proliferative activity. The selected compounds were subjected to a primary in vitro one-dose ([…]) anti-proliferative assay against 57 human tumour cell lines following the previously reported method[30] and their obtained growth inhibition percent (GI%) are presented in Table 2. A subset of ten triazolo-benzenesulfonamides (3, 5, 6, 7, 9, 11, 16–18, and 20) were selected and subjected to an in vitro anti-proliferative screening against a panel of 57 cancer cell lines at NCI at an initial high dose ([…]). The human cell lines used were derived from nine cancer types: leukaemia, lung, colon, CNS, melanoma, ovarian, renal, prostate and breast cancers.

NCI-H522 = details: Homo sapiens, NCI-H522; growth inhibition (GI%), single dose
Protocol: as §1

U251 = details: Homo sapiens, U-251; growth inhibition (GI%), single dose
Protocol: as §1

LOX IMVI = details: Homo sapiens, LOX IMVI; growth inhibition (GI%), single dose
Protocol: as §1

UACC-257 = details: Homo sapiens, UACC-257; growth inhibition (GI%), single dose
Protocol: as §1

HT29 = details: Homo sapiens, HT-29; growth inhibition (GI%), single dose
Protocol: as §1

OVCAR-8 = details: Homo sapiens, OVCAR-8; growth inhibition (GI%), single dose
Protocol: as §1

PC-3 = details: Homo sapiens, PC-3; growth inhibition (GI%), single dose
Protocol: as §1

UO-31 = details: Homo sapiens, UO-31; growth inhibition (GI%), single dose
Protocol: as §1

UACC-62 = details: Homo sapiens, UACC-62; growth inhibition (GI%), single dose
Protocol: as §1

EKVX = details: Homo sapiens, EKVX; growth inhibition (GI%), single dose
Protocol: as §1

SNB-19 = details: Homo sapiens, SNB-19; growth inhibition (GI%), single dose
Protocol: as §1

MOLT-4 = details: Homo sapiens, MOLT-4; growth inhibition (GI%), single dose
Protocol: as §1

SK-OV-3 = details: Homo sapiens, SK-OV-3; growth inhibition (GI%), single dose
Protocol: as §1

NCI-H226 = details: Homo sapiens, NCI-H226; growth inhibition (GI%), single dose
Protocol: as §1

MCF7 = details: Homo sapiens, MCF7; growth inhibition (GI%), single dose
Protocol: as §1

CCRF-CEM = details: Homo sapiens, CCRF-CEM; growth inhibition (GI%), single dose
Protocol: as §1

RPMI-8226 = details: Homo sapiens, RPMI-8226; growth inhibition (GI%), single dose
Protocol: as §1

HS 578T = details: Homo sapiens, Hs-578T; growth inhibition (GI%), single dose
Protocol: as §1

A498 = details: Homo sapiens, A498; growth inhibition (GI%), single dose
Protocol: as §1

SMILES | inhibition at 10 µM (T-47D) [%] | inhibition at 10 µM (NCI-H522) [%] | inhibition at 10 µM (U251) [%] | inhibition at 10 µM (LOX IMVI) [%] | inhibition at 10 µM (UACC-257) [%] | inhibition at 10 µM (HT29) [%] | inhibition at 10 µM (OVCAR-8) [%] | inhibition at 10 µM (PC-3) [%] | inhibition at 10 µM (UO-31) [%] | inhibition at 10 µM (UACC-62) [%] | inhibition at 10 µM (EKVX) [%] | inhibition at 10 µM (SNB-19) [%] | inhibition at 10 µM (MOLT-4) [%] | inhibition at 10 µM (SK-OV-3) [%] | inhibition at 10 µM (NCI-H226) [%] | inhibition at 10 µM (MCF7) [%] | inhibition at 10 µM (CCRF-CEM) [%] | inhibition at 10 µM (RPMI-8226) [%] | inhibition at 10 µM (HS 578T) [%] | inhibition at 10 µM (A498) [%]
N#Cc1nnn(-c2ccc(S(N)(=O)=O)cc2)c1NCC(=O)c1ccccc1 [compound 7, 7] | 4.6 | 16.1 | 6.4 | 5.9 | 11.7 | 4.5 | 2.4 | 15.9 | 21.1 | 4 | 9.2 | 7.8 | 10.2 | 8.2 | 11.8 | 6.7 | 16.4 | 12.5 | 1.7 | 
N#Cc1c(-c2ccc(Cl)cc2)nc2c(nnn2-c2ccc(S(N)(=O)=O)cc2)c1N [compound 16, 4-(7-amino-5-(4-chlorophenyl)-6-cyano-3H-[1,2,3]triazolo[4,5-b]pyridin-3-yl)benzenesulfonamide] | 5.6 | 9.8 | 2.7 | 20.4 | 6.9 | 1.2 | 3.8 | 22.2 | 25 | 15.5 | 39.5 | 3.4 | 17.6 | 9.7 | 9.8 | 13.6 | 16.4 | 8.4 | 12.1 | 17.6
N#Cc1nnn(-c2ccc(S(N)(=O)=O)cc2)c1/N=C/c1ccc(Cl)cc1 [compound 9, 9] | 11.5 | 10.5 | 4.7 |  | 2.3 | 0.4 | 7.4 | 9.3 | 0.3 | 6 | 4.2 |  | 6.9 | 9.9 | 4.8 | 4.7 | 15.9 | 12.3 |  | 8.6
N#Cc1nnn(-c2ccc(S(N)(=O)=O)cc2)c1NS(=O)(=O)c1ccccc1 [compound 11, N-(4-cyano-1-(4-sulfamoylphenyl)-1H-1,2,3-triazol-5-yl)benzenesulfonamide] | 9.6 | 10.3 | 10.9 |  | 8.1 | 5.1 | 2.9 | 9.7 | 13.4 | 5.9 | 2 | 2.8 | 11.2 | 15.1 |  | 1.7 | 6.7 | 7.1 |  | 
Nc1nc(=S)[nH]c2c1nnn2-c1ccc(S(N)(=O)=O)cc1 [compound 18, 4-(7-amino-5-thioxo-4,5-dihydro-3H-[1,2,3]triazolo[4,5-d]pyrimidin-3-yl)benzenesulfonamide] | 5.8 | 13.7 |  | 7.5 | 6.1 | 10.8 | 3.7 | 7.8 | 13.8 | 5.6 | 3.7 | 1.7 | 21.3 | 11.6 | 9.8 | 2.9 | 17.8 | 12.3 | 9.8 | 5.5
CN(C)c1ccc(-c2nc3c(nnn3-c3ccc(S(N)(=O)=O)cc3)c(N)c2C#N)cc1 [compound 17, 4-(7-amino-6-cyano-5-(4-(dimethylamino)phenyl)-3H-[1,2,3]triazolo[4,5-b]pyridin-3-yl)benzenesulfonamide] | 5.2 | 14.8 | 12.6 | 9.6 | 8.4 | 3.3 | 11.4 | 13.8 | 29.9 | 11.6 | 17.2 | 0.8 | 2.3 | 12.3 | 16.9 | 7.3 | 11.4 | 12.5 | 2.9 | 1.8
CCn1c(=S)[nH]c2c(nnn2-c2ccc(S(N)(=O)=O)cc2)c1=N [compound 20, 4-(6-ethyl-7-imino-5-thioxo-4,5,6,7-tetrahydro-3H-[1,2,3]triazolo[4,5-d]pyrimidin-3-yl)benzenesulfonamide] |  | 7.8 | 1.9 | 4.6 | 6.2 |  | 4.8 | 9.7 | 7.3 | 4.3 | 3.1 | 1.9 | 9.1 | 3.6 | 6.9 | 4.9 | 20.9 | 12.1 | 2.5 | 6.2
